molecular target: T1, Myeloperoxidase (Homo sapiens, UniProt P05164); assay: Inhibition of human MPO using H2O2 as substrate measured after 15 mins by chemiluminescence based assay
T1 sequence (P05164 whole entry): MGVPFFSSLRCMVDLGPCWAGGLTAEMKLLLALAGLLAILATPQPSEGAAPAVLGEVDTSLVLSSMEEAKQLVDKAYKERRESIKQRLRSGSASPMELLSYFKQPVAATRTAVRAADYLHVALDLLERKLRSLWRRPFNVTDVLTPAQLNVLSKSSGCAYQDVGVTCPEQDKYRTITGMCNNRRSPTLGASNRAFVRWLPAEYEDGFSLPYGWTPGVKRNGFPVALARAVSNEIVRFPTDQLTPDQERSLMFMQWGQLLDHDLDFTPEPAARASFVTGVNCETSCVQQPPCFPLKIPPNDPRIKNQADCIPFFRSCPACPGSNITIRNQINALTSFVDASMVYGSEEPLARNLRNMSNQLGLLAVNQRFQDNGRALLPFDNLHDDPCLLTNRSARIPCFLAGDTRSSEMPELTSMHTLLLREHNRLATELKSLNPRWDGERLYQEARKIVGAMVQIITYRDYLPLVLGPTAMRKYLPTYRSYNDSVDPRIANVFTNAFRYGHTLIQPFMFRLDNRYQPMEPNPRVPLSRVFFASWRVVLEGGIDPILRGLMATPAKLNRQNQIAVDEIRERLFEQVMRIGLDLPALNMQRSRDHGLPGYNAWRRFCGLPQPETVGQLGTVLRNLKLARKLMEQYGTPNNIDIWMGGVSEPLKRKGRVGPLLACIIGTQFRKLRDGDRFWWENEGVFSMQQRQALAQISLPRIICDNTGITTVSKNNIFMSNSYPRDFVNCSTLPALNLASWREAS

| SMILES | IC50 [nM] |
| --- | --- |
| O=c1[nH]c(=S)n(Cc2ccccc2[C@@H]2C[C@H](C(F)F)CCN2)c2cc[nH]c12 | 1 |
| O=c1[nH]c(=S)n(Cc2ccccc2[C@@H]2CCCCN2)c2cc[nH]c12 | 2 |
| O=c1[nH]c(=S)n(Cc2ccccc2[C@@H]2C[C@H](C(F)(F)F)CCN2)c2nc[nH]c12 | 2 |

The remaining molecules from weak to strong by IC50, led by results:

| IC50 [nM] | SMILES |
| --- | --- |
| 3 | O=c1[nH]c(=S)n(Cc2ccccc2[C@H]2C[C@H](C(F)(F)F)CCN2)c2nc[nH]c12 |
| 3 | O=c1[nH]c(=S)n(Cc2ccccc2[C@@H]2CC(F)(F)CCN2)c2cc[nH]c12 |
| 2 | O=c1[nH]c(=S)n(Cc2ccccc2[C@H]2C[C@@H](C(F)(F)F)CCN2)c2cc[nH]c12 |
